Results on 16 molecules are retold here after patent publication US9815787B2, “Sulfonamide derivative or pharmaceutically acceptable acid addition salt thereof” (UNIVERSITY OF TSUKUBA, priority 2013, dated 2017).

The target of this test is T1, OX2R (Homo sapiens, UniProt O43614).
T1 construct: expressed in transfected cells; host or cells: CHO (Chinese hamster ovary) cells constitutively expressing the OX2R gene and NFAT-luciferase (CHOOX2R)
T1 sequence (O43614 1-444): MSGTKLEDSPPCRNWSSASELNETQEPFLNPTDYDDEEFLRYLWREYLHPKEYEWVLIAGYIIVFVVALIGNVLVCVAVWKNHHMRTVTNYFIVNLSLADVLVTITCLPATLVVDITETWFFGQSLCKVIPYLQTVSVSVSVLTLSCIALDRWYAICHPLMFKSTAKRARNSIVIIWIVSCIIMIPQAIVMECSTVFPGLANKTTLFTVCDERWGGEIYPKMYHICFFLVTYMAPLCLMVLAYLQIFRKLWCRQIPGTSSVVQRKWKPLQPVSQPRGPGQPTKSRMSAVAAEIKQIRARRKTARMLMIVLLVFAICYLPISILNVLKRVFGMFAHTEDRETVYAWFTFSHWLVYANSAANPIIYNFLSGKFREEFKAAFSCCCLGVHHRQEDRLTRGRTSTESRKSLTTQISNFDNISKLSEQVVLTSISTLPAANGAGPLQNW
Put plainly: Evaluation of agonist activity against OX2R (CHOOX2R cells, Fura2AM fluorescence, FDSS3000). In kind it is cell-based. The method, then: Evaluation of Agonist Activity Against OX2R
NFAT-luciferase gene and OX2R gene were each constitutively expressed in CHO cell, which is a cell line derived from Chinese hamster ovary to establish a cell line (CHOOX2R). The cells thereof were sown on a 96 well plate at 10000 cells/well, and cultured in a 5% FBS-added DMEM medium for 48 hr. […] After washing, HEPES buffer (75 μL) was added, a test compound solution (25 μL) was added, and changes in the fluorescence intensity were measured by FDSS3000 (Hamamatsu Photonics K.K.). The test compound was dissolved in DMSO (final concentration of DMSO was 1%), and diluted with HEPES buffer to a final concentration of 0.1 μM, 1.0 μM or 10 μM.

The mark [1] stands for this setting: test compound 0.1 μM; relative to orexin-A as full agonist (100%); CHOOX2R cells.
[2] abbreviates: test compound 1.0 μM; relative to orexin-A as full agonist (100%); CHOOX2R cells.
[3] abbreviates: test compound 10 μM; relative to orexin-A as full agonist (100%); CHOOX2R cells.
The mark [4] stands for this setting: OX2R agonist activity; CHOOX2R cells.
The mark [5] stands for this setting: conversion with orexin-A as full agonist (maximum agonist activity 100%).
Where [6] appears, read: test compound 0.1 μM; CHOOX2R cells; relative to orexin-A as full agonist (100%).
Where [7] appears, read: test compound 1.0 μM; CHOOX2R cells; relative to orexin-A as full agonist (100%).
[8] abbreviates: test compound 10 μM; CHOOX2R cells; relative to orexin-A as full agonist (100%).

On to `COc1cc(C)c(-c2cccc(C(=O)N(C)C)c2)cc1S(=O)(=O)Nc1cccc(NCCNC(=O)c2cccnc2OC)c1` [Example 103, N-(2-((3-(3′-(dimethylcarbamoyl)-4-methoxy-6-methyl-[1,1′-biphenyl]-3-ylsulfonamido)phenyl)amino)ethyl)-2-methoxynicotinamide], for which the “Response (0.1 μM (%))” value under setting [1] was 77%. For the same molecule, under setting [2], the “Response (1.0 μM (%))” value came to 93%. Further, the “Response (10 μM (%))” value under setting [3] is on record as 80%.

In the case of `COc1ccc(-c2ccccc2F)cc1S(=O)(=O)Nc1cccc(NCCNC(=O)c2cccc(Cl)c2)c1` [Example 8, 3-chloro-N-(2-((3-(2′-fluoro-4-methoxy-[1,1′-biphenyl]-3-ylsulfonamide)phenyl)amino)ethyl)benzamide], the “Response (0.1 μM (%))” value under setting [1] is under 5%. In addition, the “Response (1.0 μM (%))” value under setting [2] was found to be 9%. The “Response (10 μM (%))” value under setting [3] came to 46%.

As for `COc1ccc(-c2cccc(C(=O)N(C)C)c2)cc1S(=O)(=O)Nc1cccc(NCCNC(=O)c2sccc2Cl)c1` [Example 62, 3-chloro-N-(2-((3-(3′-(dimethylcarbamoyl)-4-methoxy-[1,1′-biphenyl]-3-ylsulfonamido)phenyl)amino)ethyl)thiophene-2-carboxamide], the half-maximal effective concentration (EC50) (in general, the concentration that produces a half-maximal response) under setting [4] is 102 nM. In addition, the Emax (commonly the greatest response seen or fitted, relative to the assay's reference) under setting [5] is 99%. Also, the “Response (0.1 μM (%))” value under setting [6] is 71%. In addition, the “Response (1.0 μM (%))” value under setting [7] amounted to 92%. In addition, the “Response (10 μM (%))” value under setting [8] stood at 94%.

As to `COc1cc(C)c(-c2cccc(C(=O)N(C)C)c2)cc1S(=O)(=O)Nc1cccc(NCCNC(=O)c2ccccc2Cl)c1` [Example 104, 5′-(N-(3-((2-(2-chlorobenzamido)ethyl)amino)phenyl)sulfamoyl)-4′-methoxy-N,N,2′-trimethyl-[1,1′-biphenyl]-3-carboxamide], the “Response (0.1 μM (%))” value under setting [1] came to 67%. For the same molecule, the “Response (1.0 μM (%))” value under setting [2] amounted to 88%. The “Response (10 μM (%))” value under setting [3] was determined as 86%.

As for `COc1ccccc1C(=O)NCCNc1cccc(NS(=O)(=O)c2cc(-c3cccc(F)c3)ccc2OC)c1` [Example 109, N-(2-((3-(3′-fluoro-4-methoxy-[1,1′-biphenyl]-3-ylsulfonamido)phenyl)amino)ethyl)-2-methoxybenzamide], the “Response (0.1 μM (%))” value under setting [1] is 13%. Besides, the “Response (1.0 μM (%))” value under setting [2] amounted to 46%. Besides, under setting [3], the “Response (10 μM (%))” value is reported as 47%.

`COc1ccc(-c2cccc(C(=O)N(C)C)c2)cc1S(=O)(=O)Nc1cccc(NCCNC(=O)c2ccccc2C)c1` [Example 65, 4′-methoxy-N,N-dimethyl-3′-(N-(3-((2-(2-methylbenzamido)ethyl)amino)phenyl)sulfamoyl)-[1,1′-biphenyl]-3-carboxamide] displayed an EC50 under setting [4] of 800 nM. The molecule also yielded an Emax under setting [5] of 85%. Moreover, the “Response (0.1 μM (%))” value under setting [6] is reported as 74%. The “Response (1.0 μM (%))” value under setting [7] is 96%. Moreover, the “Response (10 μM (%))” value under setting [8] turned out to be 74%.

In the case of `COc1cccc(C(=O)NCCNc2cccc(NS(=O)(=O)c3cc(-c4cc(F)ccc4Cl)ccc3OC)c2)c1` [Example 33, N-(2-((3-(2′-chloro-5′-fluoro-4-methoxy-[1,1′-biphenyl]-3-ylsulfonamide)phenyl)amino)ethyl)-3-methoxybenzamide], under setting [1], the “Response (0.1 μM (%))” value is on record as under 5%. Moreover, the “Response (1.0 μM (%))” value under setting [2] amounted to 31%. The “Response (10 μM (%))” value under setting [3] is listed as 93%.

For `COc1ccc(-c2cccc(C(=O)N3CCCCC3)c2)cc1S(=O)(=O)Nc1cccc(NCCNC(=O)c2cccc(F)c2)c1` [Example 92, 3-fluoro-N-(2-((3-(4-methoxy-3′-(piperidine-1-carbonyl)-[1,1′-biphenyl]-3-ylsulfonamido)phenyl)amino)ethyl)benzamide], the “Response (0.1 μM (%))” value under setting [6] turned out to be 27%. Besides, the “Response (1.0 μM (%))” value under setting [7] is given as 92%. The “Response (10 μM (%))” value under setting [8] was determined as 94%.

Turning to `COc1cccc(C(=O)NCCNc2cccc(NS(=O)(=O)c3cc(-c4ccccc4O)ccc3OC)c2)c1` [Example 22, N-(2-((3-(2′-hydroxy-4-methoxy-[1,1′-biphenyl]-3-ylsulfonamide)phenyl)amino)ethyl)-3-methoxybenzamide], the “Response (0.1 μM (%))” value under setting [1] was under 5%. Further, the “Response (1.0 μM (%))” value under setting [2] was 15%. In addition, under setting [3], the “Response (10 μM (%))” value is 21%.

Molecule `COc1ccccc1C(=O)NCCNc1cccc(NS(=O)(=O)c2cc(-c3cccc(C(=O)N(C)C)c3)ccc2OC)c1` [Example 40, 4′-methoxy-3′-(N-(3-((2-(2-methoxybenzamido)ethyl)amino)phenyl)sulfamoyl)-N,N-dimethyl-[1,1′-biphenyl]-3-carboxamide] had an EC50 under setting [4] of 50 nM. The molecule further gave an Emax under setting [5] of 74%. For the same molecule, the “Response (0.1 μM (%))” value under setting [6] stood at 35%. The “Response (1.0 μM (%))” value under setting [7] is on record as 74%. Also, the “Response (10 μM (%))” value under setting [8] was 74%.

On to `COc1cccc(C(=O)NCCNc2cccc(NS(=O)(=O)c3cc(-c4cncc(OC)c4)ccc3OC)c2)c1` [Example 98, 3-methoxy-N-(2-((3-(2-methoxy-5-(5-methoxypyridin-3-yl)phenylsulfonamido)phenyl)amino)ethyl)benzamide], for which, under setting [1], the “Response (0.1 μM (%))” value is on record as under 5%. For the same molecule, the “Response (1.0 μM (%))” value under setting [2] stood at 22%. Under setting [3], the “Response (10 μM (%))” value was determined as 91%.

On to `COc1ccccc1C(=O)NCCNc1cccc(NS(=O)(=O)c2cc(-c3cccc(C(=O)N4CCCCC4)c3)ccc2OC)c1` [Example 80, 2-methoxy-N-(2-((3-(4-methoxy-3′-(piperidine-1-carbonyl)-1-[1,1′-biphenyl]-3-ylsulfonamido)phenyl)amino)ethyl)benzamide], for which the “Response (0.1 μM (%))” value under setting [6] came out at 37%. Moreover, the “Response (1.0 μM (%))” value under setting [7] is 91%. Under setting [8], the “Response (10 μM (%))” value was found to be 91%.

Take `COc1ccc(-c2cccc(C(=O)N3CCCC3)c2)cc1S(=O)(=O)Nc1cccc(NCCNC(=O)c2ccccc2Cl)c1` [Example 87, 2-chloro-N-(2-((3-(4-methoxy-3′-(pyrrolidine-1-carbonyl)-[1,1′-biphenyl]-3-ylsulfonamido)phenyl)amino)ethyl)benzamide]: the “Response (0.1 μM (%))” value under setting [6] is listed as 42%. Under setting [7], the “Response (1.0 μM (%))” value stood at 90%. Besides, the “Response (10 μM (%))” value under setting [8] is on record as 80%.

For `COc1cccc(C(=O)NCCNc2cccc(NS(=O)(=O)c3cc(-c4c(F)cccc4F)ccc3OC)c2)c1` [Example 18, N-(2-((3-(2′,6′-difluoro-4-methoxy-[1,1′-biphenyl]-3-ylsulfonamide)phenyl)amino)ethyl)-3-methoxybenzamide], the “Response (0.1 μM (%))” value under setting [1] is on record as under 5%. Further, the “Response (1.0 μM (%))” value under setting [2] worked out at 13%. For the same molecule, the “Response (10 μM (%))” value under setting [3] was 151%.

In the case of `COc1ccc(-c2cccc(C(=O)N(C)C)c2)cc1S(=O)(=O)Nc1cccc(NCCNC(=O)c2ccccc2C#N)c1` [Example 71, 3′-(N-(3-((2-(2-cyanobenzamido)ethyl)amino)phenyl)sulfamoyl)-4′-methoxy-N,N-dimethyl-[1,1′-biphenyl]-3-carboxamide], the “Response (0.1 μM (%))” value under setting [6] is recorded as under 5%. In addition, under setting [7], the “Response (1.0 μM (%))” value was found to be 39%. The “Response (10 μM (%))” value under setting [8] amounted to 80%.

Regarding `COc1cc(C)c(-c2cccc(C(=O)N(C)C)c2)cc1S(=O)(=O)Nc1cccc(NCCNC(=O)c2sccc2Cl)c1` [Example 105, 3-chloro-N-(2-((3-(3′-(dimethylcarbamoyl)-4-methoxy-6-methyl-[1,1′-biphenyl]-3-ylsulfonamido)phenyl)amino)ethyl)thiophene-2-carboxamide], the “Response (0.1 μM (%))” value under setting [1] is given as 78%. Also, the “Response (1.0 μM (%))” value under setting [2] came to 84%. Moreover, the “Response (10 μM (%))” value under setting [3] was determined as 79%.
